In patent US9603854B2, “Indolizine compounds, a process for their preparation and pharmaceutical compositions containing them” (LES LABORATOIRES SERVIER, priority 2012, dated 2017):
Counter-ions that a name gives are not always drawn.

What was measured:
Bcl-2 protein = Bcl-2 protein (Homo sapiens (Human), UniProt P10415); assay: Inhibition of Bcl-2 by the fluorescence polarisation technique; assay type: binding; details: Bcl-2 inhibition, fluorescence polarisation test; read-out: IC50 (nM) Bcl-2 FP
Chain of Bcl-2 protein (P10415 whole entry): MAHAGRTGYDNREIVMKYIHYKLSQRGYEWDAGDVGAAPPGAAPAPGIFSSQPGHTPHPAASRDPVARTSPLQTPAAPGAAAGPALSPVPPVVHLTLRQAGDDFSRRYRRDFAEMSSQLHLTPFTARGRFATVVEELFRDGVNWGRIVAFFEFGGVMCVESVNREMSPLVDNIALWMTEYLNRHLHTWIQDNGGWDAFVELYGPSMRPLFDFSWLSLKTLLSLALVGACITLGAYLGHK
Experimental: The fluorescence polarisation tests were carried out on microplates (384 wells). […] After incubation for 2 hours, the fluorescence polarisation is measured.

[1] = test system: RS4;11 leukaemia tumour line; assay: In vitro cytotoxicity (Microculture Tetrazolium Assay, 48 hours); assay type: cell-based; details: cytotoxicity for RS4;11 cells, MTT
Experimental: The cytotoxicity studies were carried out on the RS4;11 leukaemia tumour line.
The cells are distributed onto microplates and exposed to the test compounds for 48 hours.

caspase 3 = assay: Induction of caspase activity in vivo (DEVDase activity in tumour lysates, RS4;11 xenograft); design: species or system mice (SCID strain); details: oral treatment 50 mg/kg, RS4;11 xenograft in SCID mice, 16 hours after treatment; for fold induction at 50 mg/kg: Mus musculus, read-out: Activation factor (versus control), DEVDase activity in the tumours
Experimental: The ability of the compounds of the invention to activate caspase 3 is evaluated in a xenograft model of RS4;11 leukaemia cells.
1×10^7 RS4;11 cells are grafted sub-cutaneously into immunosuppressed mice (SCID strain). 25 to 30 days after the graft, the animals are treated orally with the various compounds. Sixteen hours after treatment, the tumour masses are recovered and lysed, and the caspase 3 activity is measured in the tumour lysates.
This enzymatic measurement is carried out by assaying the appearance of a fluorigenic cleavage product (DEVDase activity, Promega). It is expressed in the form of an activation factor corresponding to the ratio between the two caspase activities: the activity for the treated mice divided by the activity for the control mice.

`O=C(c1cc(-c2cc3c(cc2C(=O)N2Cc4ccccc4C[C@H]2CN2CCOCC2)OCO3)n2ccccc12)N(c1ccccc1)c1ccc(O)cc1` [Example 58, N-(4-Hydroxyphenyl)-3-{6-[((3S)-3-(4-morpholinylmethyl)-3,4-dihydro-2(1H)-isoquinolinyl)carbonyl]-1,3-benzodioxol-5-yl}-N-phenyl-1-indolizine carboxamide hydrochloride] gave an IC50 (Bcl-2 protein) of 22 nM, an IC50 ([1]; Homo sapiens) of 40.1 nM and a fold induction at 50 mg/kg (caspase 3) of 23.3.

`O=C(c1cc(-c2cc3c(cc2C(=O)N2Cc4ccccc4C[C@H]2CN2CCOCC2)OCO3)n2c1CCCC2)N(c1ccc(O)cc1)c1ccc(O)cc1` [Example 6, N,N-bis(4-Hydroxyphenyl)-3-{6-[((3S)-3-(4-morpholinylmethyl)-3,4-dihydro-2(1H)-isoquinolinyl)carbonyl]-1,3-benzodioxol-5-yl}-5,6,7,8-tetrahydra-1-indolizine carboxamide hydrochloride] showed an IC50 [1] of 30 nM.

`Cn1ccc2cc(N(C(=O)c3cc(-c4cc5c(cc4C(=O)N4Cc6ccccc6C[C@H]4CN4CCOCC4)OCO5)n4c3CCC4)c3ccc(O)cc3)ccc21` [Example 96, N-(4-Hydroxyphenyl)-N-(1-meth-1H-indol-5-yl)-5-(6-{[(3S)-3-(morpholin-4-ylmethyl)-3,4-dihydroisoquinolin-2(1H)-yl]carbonyl}-1,3-benzodioxol-5-yl)-2,3-dihydro-1H-pyrrolizine-7-carboxamide hydrochloride] was tested, and the IC50 [1] was 58.8 nM.

`O=C(c1cc(-c2cc3c(cc2C(=O)N2Cc4ccccc4C[C@H]2CN2CCOCC2)OCO3)n2c1CCCC2)N(c1ccc(O)cc1)c1ccc(Cl)cc1` [Example 3, N-(4-Chlorophenyl)-N-(4-hydroxyphenyl)-3-{6-[((3S)-3-(4-morpholinylmethyl)-3,4-dihydro-2(1H)-isoquinolinyl)carbonyl]-1,3-benzodioxol-5-yl}-5,6,7,8-tetrahydro-1-indolizine carboxamide hydrochloride] gave an IC50 (Bcl-2 protein) of 20 nM, an IC50 ([1]; Homo sapiens) of 44.7 nM and a fold induction at 50 mg/kg (caspase 3) of 5.7.

In the case of `Cl.Cn1ccc2cc(N(C(=O)c3cc(-c4cc(Cl)ccc4C(=O)N4Cc5ccccc5C[C@H]4CN4CCOCC4)n4ccccc34)c3ccc(O)cc3)ccc21` [Example 67, 3-{5-Chloro-2-[((3S)-3-(4-morpholinylmethyl)-3,4-dihydro-2(1H)-isoquinolinyl)carhonyl]phenyl}-N-(4-hydroxyphenyl)-N-(1-methyl-1H-indol-5-yl)-1-indolizine carboxamide hydrochloride], the IC50 [1] is reported as 17.7 nM and the “Activation factor (versus control), DEVDase activity in the tumours” value (caspase 3) is reported as 18.9 (50 mg/kg).

With `Cn1ccc2cc(N(C(=O)c3cc(-c4cc5c(cc4C(=O)N4Cc6ccccc6C[C@H]4CN4CCOCC4)OCO5)n4c3CN(C(=O)OC(C)(C)C)CC4)c3ccc(O)cc3)ccc21` [Example 72] the IC50 (Bcl-2 protein) was 220 nM and the IC50 [1] was 270 nM.

In the case of `Cn1ccc2ccc(N(C(=O)c3cc(-c4cc(Cl)ccc4C(=O)N4Cc5ccccc5C[C@H]4CN4CCOCC4)n4c3CCCCC4)c3ccc(O)cc3)cc21` [Example 83, 3-{5-Chloro-2-[((3S)-3-(4-morpholinylmethyl)-3,4-dihydro-2(1H)-isoquinolinyl)carhonyl]phenyl}-N-(4-hydroxyphenyl)-N-(1-methyl-1H-indol-6-yl)-6,7,8,9-tetrahydro-5H-pyrrolo[1,2-a]azepine-1-carboxamide hydrochloride], the IC50 [1] is reported as 41.2 nM.

`CN1CCc2cc(N(C(=O)c3cc(-c4cc(Cl)ccc4C(=O)N4Cc5ccccc5C[C@H]4CN4CCOCC4)c4n3CCCC4)c3ccc(O)cc3)ccc21` [Example 43, 1-{5-Chloro-2-[((3S)-3-(4-morpholinylmethyl)-3,4-dihydro-2(1H)-isoquinolinyl)carbonyl]phenyl}-N-(4-hydroxyphenyl)-N-(1-methyl-2,3-dihydro-1H-indol-5-yl)-5,6,7,8-tetrahydro-3-indolizine carboxamide hydrochloride] gave an IC50 (Bcl-2 protein) of 110 nM.

Work on `CCOc1ccc(C(=O)N2Cc3ccccc3C[C@H]2CN2CCOCC2)c(-c2cc(C(=O)N(c3ccc(O)cc3)c3ccc4c(ccn4C)c3)c3n2CCCC3)c1` [Example 36, 3-{5-Ethoxy-2-[((3S)-3-(4-morpholinylmethyl)-3,4-dihydro-2(1H)-isoquinolinyl)carbonyl]phenyl}-N-(4-hydroxyphenyl)-N-(1-methyl-1H-indol-5-yl)-5,6,7,8-tetrahydro-1-indolizine carboxamide hydrochloride] yielded an IC50 ([1]; Homo sapiens) of 135 nM.
